Assay results as given in PubChem BioAssay (NCI).
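Method: 48-hour compound exposure of cells in 96-well plates, five concentrations, linear interpolation of endpoints. Here, GI50 denotes the concentration required for 50% inhibition of growth. At the TGI there is no net growth.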

Each molecule was assayed on MDA-MB-468 breast (assay: NCI anticancer screen, dose series, 48 h).

SMILES | GI50 [µM] | TGI [µM]
COc1ccc(-c2ccc(-c3ccc(C(=N)N)c(F)c3)s2)cc1 | 0.373 | 1.21
COc1ccc(/C=C2\COc3ccc(O)c(O)c3C2=O)cc1 | 1.24 | 3.94
C#CC[C@@H]1C[C@]2(C)[C@H]3CC[C@@H]4[C@H]5C(C(=C)C)CC[C@]5(C(=O)NCCCCN)CC[C@@]4(C)[C@]3(C)CC[C@H]2C(C)(C)[C@H]1OC(C)=O (stereo partly specified) | 1.78 | 3.59
COc1cccc2c1O/C(=C\c1ncc([N+](=O)[O-])n1C)C2=O | 1.59 | 4.3
COc1cc(OC)c(/C=C/c2cc[n+](C)c3ccccc23)c(OC)c1 | 0.36 | 5.01
Cc1ccc(CN(C)c2ccc(CO)c(Cl)c2)cc1 | 0.0389 | 0.166
CCc1cccc2c3c(sc12)C(c1ccc(F)cc1)C(C#N)=C(/N=C/c1ccc(Cl)cc1)O3 (stereo unspecified) | 0.248 | 0.812
O=C1OCC2=C1C(c1ccc3c(c1)OCO3)c1cc3c(cc1O2)OCO3 (stereo unspecified) | 0.938 | > 100
O=C1C=CC2(O)OC/C(=C\c3ccccc3)C(O)=C2C1=O (stereo unspecified) | 1.62 | 3.23
CC(C)Oc1ccc(-c2nn([C@@H](C)c3oc4ccc(F)cc4c(=O)c3-c3cccc(F)c3)c3ncnc(N)c23)cc1F | 37.1 | > 100
Clc1ccc(Cn2c(CN3CCCC3)nc3ccccc32)cc1 | 13.4 | 34.2
CNCCCNc1nc2ccccc2c2c(=O)c3cc(F)ccc3sc12 | 1.18 | 2.6
Cc1cc(=O)n2nnc3c4ccccc4ccc3n12 | 1.75 | 4.82
O=C(Nc1ccc(Cl)cc1)Nc1ccc(Cl)c(C(F)(F)F)c1 | 1.67 | 4.8
COC(=O)/C=C1/SC(=Nc2ccc(F)cc2)N(CCc2c[nH]c3ccc(O)cc23)C1=O | 3.03 | 23.6
COc1cc(-c2nn(-c3cccc(NC(=O)Nc4cccc(C(F)(F)F)c4)c3)cc2-c2ccncc2)ccc1Cl | 0.369 | 2.09
CCN(CC)CC(O)CNc1c2ccc(Cl)cc2nc2ccc(OC)cc12 (stereo unspecified) | 0.666 | 2.18
Cc1oc2c(C(=O)N/N=C\c3ccc(O)cc3O)c[nH]c2c1C | 1.96 | 18.3
COc1ccc(C(=O)c2sc3nc4c(cc3c2N)CCCC4)cc1OC | 2.46 | 23.6
Cc1ccc(C2=NN(c3ccc(S(C)(=O)=O)cc3)C(=O)CC2)cc1 | 1.23 | 4.86
Nc1c(C(=O)Nc2cccc(C(F)(F)F)c2)sc2nc3c(cc12)C(O)CCC3 (stereo unspecified) | 1.69 | > 62.1
O=C(O)c1ccc(NCc2nc3cc(Cl)c(Cl)cc3[nH]2)cc1 | 62 | > 100
COc1cc(C2CC(c3cccc(Nc4ccncc4)c3)=NN2c2ccccc2)cc(OC)c1OC (stereo unspecified) | 1.49 | 2.95
CCc1ccc(C(=O)/C=C/C23c4ccccc4C(c4ccccc42)C2C(=O)NC(=O)C23)cc1 (stereo unspecified) | 1.79 | 4.13

SMILES | GI50 [µM] | TGI [µM]
Nc1c(C(=O)c2cccc(OC[C@@H](O)CO)c2)cnn1-c1ccc(F)cc1 | > 25 | > 25
COc1cc(/C=C/C(=O)c2ccccc2)cc(OC)c1OC | 2.3 | 8.32
[2H]c1nc(C)nc([2H])c1-c1cc(NC[C@@H](C)c2cccc3c(C(=O)NC)ccnc23)ncn1 | 56 | > 100
Cc1cc2cn3c4ccc(O)cc4nc(N)c3c2cc1C | 0.222 | 0.626
CC(C)N(CCCNC(=O)Nc1ccc(C(C)(C)C)cc1)C[C@H]1O[C@@H](n2ccc3c(N)ncnc32)[C@H](O)[C@@H]1O | > 100 | > 100
CC1(C)CC[C@]2(C(=O)Nc3ccccn3)CC[C@]3(C)C(=CC[C@@H]4[C@@]5(C)C/C(=C/c6ccncc6)C(=O)C(C)(C)[C@@H]5CC[C@]43C)[C@@H]2C1 | 2.12 | > 100
Cn1c(-c2ccncc2)c(-c2ccc(F)cc2)c2ncccc21 | > 22.7 | > 25
COc1ccc(C2C=C(c3ccc(OC)c(OC)c3)N=C3SC=CN32)c(Br)c1 (stereo unspecified) | 1.88 | 3.91
Cc1nc2cc(-c3nn(C(C)C)c4ncnc(N)c34)ccc2o1 | 0.00863 | 0.101
CC(=O)N1CCC(Nc2ncc3cc(Oc4ccc(F)cc4F)c(=O)n(C)c3n2)CC1 | > 25 | > 25
CC(=O)c1c(Nc2cccc(F)c2)[nH]c2c(Cl)cc(Cl)c(Cl)c2c1=O | 0.317 | 1.35
CN(C)CCONC(=O)C12CC3CC(CC(C3)C1)C2 | > 100 | > 100
COc1cc(/C=C2\C(=O)Nc3ccccc32)cc(OC)c1O | 1.57 | 7.67
Nc1nc2cc(O)ccc2n2cc3c(F)cccc3c12 | 2.66 | > 100
CC(=O)Oc1cc(C(C)C)c(OCCN(C)C)cc1C | > 100 | > 100
O=C(OCC1OC(n2cc(C(F)(F)F)c(=O)[nH]c2=O)CC1OC(=O)c1ccc([N+](=O)[O-])cc1)c1ccc([N+](=O)[O-])cc1 (stereo unspecified) | 28 | > 100
Cc1cc(Cl)ccc1OCc1nn2c(CCCCc3nnc4sc(COc5ccc(Cl)cc5C)nn34)nnc2s1 | 8.42 | 81.2
O=C1/C=C/[C@@H](O)[C@@H]2C[C@@H](O)C[C@H]2/C=C/CCC[C@H](CCc2ccccc2)O1 | < 0.01 | 0.0251
O=c1ncc(I)cn1C1CC(O)C(CO)O1 (stereo unspecified) | 935 | 2980
O=c1ccccc(-c2ccc(Br)cc2)c1O | 0.257 | 2.32
COc1ccc(C(=S)N(C)NC(=O)CC(=O)NN(C)C(=S)c2ccc(OC)cc2)cc1 | 48.7 | > 100
c1ccc(-c2n(Cc3ccc4ccccc4c3)c3c4ccccc4c4ccccc4c3[n+]2Cc2ccc3ccccc3c2)cc1 | 0.23 | 0.845
c1ccc(CC(Cc2ccccc2)C2=NCCCN2)cc1 | 2.92 | > 100
C[CH2][Pb]([CH2]C)([CH2]C)[O]C(=O)COC | 0.201 | 0.71
